The target in this assay is GLP-1R (Homo sapiens, UniProt P43220). As to the kind of experiment: GLP-1R agonist cAMP stimulation assay (HTRF cAMP). In kind it is cell-based. The following applies: HEK293 cell line expressing GLP-1 target; HTRF cAMP agonist mode, 30 min at RT. The essentials: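 GLP-1R-expressing cells were stimulated with 10-point, 3-fold compound dilutions for 30 min at RT; HTRF cAMP detection reagents were then added for 60 min and the 665/615 ratio read. Ratios were converted to cAMP via a standard curve and % activity scaled between DMSO and top-concentration GLP-1(7-37) reference wells.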
Sequence of GLP-1R (P43220 24-463): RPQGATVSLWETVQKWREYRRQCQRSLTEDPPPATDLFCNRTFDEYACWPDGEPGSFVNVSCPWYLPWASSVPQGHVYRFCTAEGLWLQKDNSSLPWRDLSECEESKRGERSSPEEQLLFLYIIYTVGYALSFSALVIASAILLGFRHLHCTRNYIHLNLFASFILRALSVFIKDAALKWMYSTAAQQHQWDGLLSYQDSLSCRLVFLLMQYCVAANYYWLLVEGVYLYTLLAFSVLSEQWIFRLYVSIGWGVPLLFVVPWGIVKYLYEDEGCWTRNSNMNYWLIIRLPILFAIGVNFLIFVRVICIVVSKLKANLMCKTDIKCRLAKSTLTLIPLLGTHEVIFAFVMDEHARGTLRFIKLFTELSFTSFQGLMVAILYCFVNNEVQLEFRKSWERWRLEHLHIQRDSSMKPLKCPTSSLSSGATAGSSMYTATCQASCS

A word on the EC50: it is the concentration giving half of the maximal effect. A lower EC50 goes with a more potent agent. In turn, `Cc1cc(NC(=O)c2ccc3c(c2)nc(CN2CC=C(c4cccc(OCc5ccc(Cl)cc5F)n4)CC2)n3C[C@@H]2CCO2)c(F)c2c(C)n[nH]c12` [Compound 175] registered an EC50 of 1.23 nM. For `Cc1cc(C(=O)Nc2ccc3c(c2)nc(C2CC24CCN(c2cccc(OCc5ccc(Cl)cc5F)n2)CC4)n3C[C@@H]2CCO2)cc2c1NC(=O)C21CC1` (stereo partly shown) [Compound 247] the value was 0.83 nM; for `Cc1cc(NC(=O)c2ccc3c(c2)nc(CN2CC=C(c4cccc(OCc5ccc(C#N)cc5F)n4)CC2)n3C[C@@H]2CCO2)cc2c(C3CC3)n[nH]c12` [Compound 185], 1.32 nM. For `O=C(Nc1ccc2nc(CN3CC=C(c4cccc(OCc5ccc(Cl)cc5F)n4)CC3)n(CC3CCO3)c2c1)c1ccc2[nH]nc(F)c2c1` (stereo not shown) [Compound 280] the value was 21 nM; for `Cc1cc(C(=O)Nc2ccc3c(c2)nc(CN2CC=C(c4cccc(OCc5ccc(C#N)cc5F)n4)CC2)n3C[C@@H]2CCO2)cc2cn[nH]c12` [Compound 236], 1.04 nM; for `O=C(NCC(=O)N1C[C@@H](O)[C@@H](O)C1)c1ccc2c(c1)nc(CN1CCC(c3cccc(OCc4ccc(Cl)cc4F)n3)CC1)n2C[C@@H]1CCO1` [Compound 67], 5.89 nM.

As to `COCCn1c(CN2CCC(c3cccc(OCc4ccc(Cl)cc4F)n3)CC2)nc2cc(NC(=O)c3cc(C)c4[nH]nc(C)c4c3)ccc21` [Compound 260], the concentration giving a half-maximal response (EC50) is 1.03 nM. This EC50 is about 5.7-fold lower than that of the molecule before. `COCCn1c(CN2CCC(c3cccc(OCc4ccc(Cl)cc4F)n3)CC2)nc2cc(C(=O)NC3Cc4cc(C)c(O)cc4C3)ccc21` (stereo not shown) [Compound 43] displayed an EC50 of 256 nM.

Consider `Cc1n[nH]c2ccc(NC(=O)c3ccc4nc(CN5CC=C(c6cccc(OCc7ccc(C#N)cc7F)n6)CC5)n(CC5CCO5)c4c3)cc12` (stereo not shown) [Compound 275], for which the half-maximal effective concentration (EC50) is 6.21 nM. For `Cc1n[nH]c2c(C(F)(F)F)cc(C(=O)Nc3ccc4c(c3)nc(Cc3ccc(-c5cccc6c5OC(C)(c5ccc(C#N)cc5F)O6)cc3F)n4C[C@@H]3CCO3)cc12` (stereo partly shown) [Compound 325] the value was 1.05 nM; for `O=C(Nc1ccc2c(c1)nc(CN1CC=C(c3cccc(OCc4ccc(Cl)cc4F)n3)CC1)n2C[C@@H]1CCO1)c1cc(C(F)(F)F)c2[nH]ncc2c1` [Compound 212], 2.96 nM. For the molecule `Cc1n[nH]c2cc(F)c(NC(=O)c3ccc4c(c3)nc(CN3CCC(c5cccc(OCc6ccc(Cl)cc6F)n5)CC3)n4C[C@@H]3CCO3)cc12` [Compound 123], the 50% effective concentration (EC50) was 5.49 nM. For `Cc1n[nH]c2ccc(C(=O)Nc3ccc4c(c3)nc(C3CC35CCN(c3cccc(OCc6ccc(Cl)cc6F)n3)CC5)n4CC3CCO3)cc12` (stereo not shown) [Compound 246] the value was 0.91 nM; for `Nc1ncc2c(ncn2C(=O)c2ccc3c(c2)nc(CN2CCC(c4cccc(OCc5ccc(Cl)cc5F)n4)CC2)n3C[C@@H]2CCO2)n1` [Compound 78], 23.1 nM; for `N#Cc1ccc(COc2cccc(C3=CCN(Cc4nc5cc(C(=O)Nc6cc(F)c7[nH]ncc7c6)ccc5n4C[C@@H]4CCO4)CC3)n2)c(F)c1` [Compound 180], 1.06 nM. For `O=C(Nc1ccc2[nH]nc(Cl)c2c1)c1ccc2nc(CN3CC=C(c4cccc(OCc5ccc(Cl)cc5F)n4)CC3)n(CC3CCO3)c2c1` (stereo not shown) [Compound 269] the value was 10.8 nM; for `Cc1cc(NC(=O)c2ccc3c(c2)nc(CN2CC=C(c4cccc(OCc5ccc(C#N)cc5F)n4)CC2)n3C[C@@H]2CCO2)cc2c(C(F)F)n[nH]c12` [Compound 183], 0.76 nM. `COc1n[nH]c2ccc(NC(=O)c3ccc4c(c3)nc(CN3CC=C(c5cccc(OCc6ccc(Cl)cc6F)n5)CC3)n4C[C@@H]3CCO3)cc12` [Compound 138] showed an EC50 of 8.92 nM. For `CC(C)c1n[nH]c2ccc(C(=O)Nc3ccc4c(c3)nc(CN3CCC(c5cccc6c5OC(C)(c5ccc(C#N)cc5F)O6)CC3)n4CC3CCO3)cc12` (stereo not shown) [Compound 347] the value was 0.81 nM. For `N#Cc1ccc(COc2cccc(C3=CCN(Cc4nc5cc(NC(=O)c6ccc7c(c6)C6(CC6)C(=O)N7)ccc5n4C[C@@H]4CCO4)CC3)n2)c(F)c1` [Compound 230] the value was 0.09 nM. For `CC(=O)c1n[nH]c2ccc(C(=O)Nc3ccc4c(c3)nc(CN3CC=C(c5cccc(OCc6ccc(Cl)cc6F)n5)CC3)n4C[C@@H]3CCO3)cc12` [Compound 395] the value was 10.3 nM. `Cc1cc2c(C#N)ccc(COc3cccc(C4=CCN(Cc5nc6cc(C(=O)Nc7cc(F)c8[nH]nc(C)c8c7)ccc6n5C[C@@H]5CCO5)CC4)n3)c2o1` [Compound 353] gave an EC50 of 0.44 nM. Turning to `N#Cc1ccc(COc2cccc(C3=CCN(Cc4nc5cc(C(=O)Nc6ccc7[nH]nc(C(F)(F)F)c7c6)ccc5n4C[C@@H]4CCO4)CC3)n2)c(F)c1` [Compound 184], it took 1.57 nM to reach a half-maximal effect (EC50). Compared with the last molecule, the EC50 is about 3.6-fold higher. For `Cc1n[nH]c2c(C(F)(F)F)cc(C(=O)Nc3ccc4nc(CN5CC=C(c6cccc(OCc7ccc(Cl)cc7F)n6)CC5)n(CC5CCO5)c4c3)cc12` (stereo not shown) [Compound 287] the value was 2.98 nM.

Molecule `N#Cc1ccc(COc2cccc(C3=CCN(Cc4nc5cc(C(=O)Nc6ccc7c(c6)C6(CC6)C(=O)N7)ccc5n4C[C@@H]4CCO4)CC3)n2)c(F)c1` [Compound 182] gave an EC50 of 0.32 nM. For `COCCn1c(CN2CCC(c3cccc(OCc4ccc(Cl)cc4F)n3)CC2)nc2cc(C(=O)N3Cc4[nH]nc(N)c4C3)ccc21` [Compound 26] the value was over 10000 nM; for `O=C(Nc1cc(F)c2[nH]ncc2c1)c1ccc2c(c1)nc(CN1CC=C(c3cccc(OCc4ccc(Cl)cc4F)n3)CC1)n2C[C@@H]1CCO1` [Compound 152], 0.64 nM; for `Cc1n[nH]c2c(Cl)cc(C(=O)Nc3ccc4c(c3)nc(CN3CCC(c5cccc6c5OC(C)(c5ccc(Cl)cc5F)O6)CC3)n4CC3CCO3)cc12` (stereo not shown) [Compound 344], 1.02 nM. Molecule `Cc1cc(NC(=O)c2ccc3c(c2)nc(CN2CCC(c4cccc(OCc5ccc(Cl)cc5F)n4)CC2)n3C[C@@H]2CCO2)c(F)c2c(C)n[nH]c12` [Compound 121] gave a half-maximal effective concentration (EC50) of 4.23 nM. In the case of `O=C(Nc1ccc2[nH]nc(C3CC3)c2c1)c1ccc2c(c1)nc(CN1CC=C(c3cccc(OCc4ccc(Cl)cc4F)n3)CC1)n2C[C@@H]1CCO1` [Compound 162], the concentration for a half-maximal effect (EC50) came out at 1.23 nM. Take `Cc1cc2cc(C(=O)Nc3ccc4c(c3)nc(CN3CC=C(c5cccc(OCc6ccc(Cl)cc6F)n5)CC3)n4C[C@@H]3CCO3)ccc2[nH]1` [Compound 394]: the midpoint of the response, the EC50, lay at 21.1 nM.

In turn, `O=C(NCC(=O)N1C[C@@H](F)C[C@H]1C(=O)O)c1ccc2c(c1)nc(CN1CCC(c3cccc(OCc4ccc(Cl)cn4)n3)CC1)n2C[C@@H]1CCO1` [Compound 48] returned an EC50 of 4.36 nM.

On to `Cc1n[nH]c2cc(F)c(NC(=O)c3ccc4c(c3)nc(CN3CC=C(c5cccc(OCc6ccc(Cl)cc6F)n5)CC3)n4C[C@@H]3CCO3)cc12` [Compound 174], for which the concentration for a half-maximal effect (EC50) came out at 2.13 nM. For `C[C@@H](NC(=O)c1ccc2c(c1)nc(CN1CCC(c3cccc(OCc4ccc(Cl)cc4F)n3)CC1)n2C[C@@H]1CCO1)C(=O)N1C[C@@H](O)C[C@@H]1C(=O)O` [Compound 65] the value was 1.75 nM. `Cc1n[nH]c2cc(NC(=O)c3ccc4c(c3)nc(CN3CCC(c5cccc(OCc6ccc(Cl)cc6F)n5)CC3)n4C[C@@H]3CCO3)ccc12` [Compound 94] gave an EC50 of 372 nM. Take `Cc1cc(C(=O)Nc2ccc3c(c2)nc(CN2CC=C(c4cccc5c4OC(C)(c4ccc(Cl)cc4F)O5)CC2)n3C[C@@H]2CCO2)cc2[nH]c(=O)[nH]c12` (stereo partly shown) [Compound 309]: the concentration for a half-maximal effect (EC50) was 0.87 nM. For `Cc1n[nH]c2c(C)cc(NC(=O)c3cc4c(nc(CN5CC=C(c6cccc(OCc7ccc(Cl)cc7F)n6)CC5)n4C[C@@H]4CCO4)s3)cc12` [Compound 405] the value was 39.9 nM; for `COCCn1c(CN2CCC(c3cccc(OCc4ccc(Cl)cc4F)n3)CC2)nc2cc(C(=O)NCc3ccc(O)c(C(=O)OC)c3)ccc21` [Compound 36], over 10000 nM. For `Cc1n[nH]c2c(C(F)F)cc(NC(=O)c3ccc4c(c3)nc(CN3CC=C(c5cccc(OCc6ccc(Cl)cc6F)n5)CC3)n4C[C@@H]3CCO3)cc12` [Compound 172] the value was 1.63 nM; for `Cc1cc(NC(=O)c2ccc3c(c2)nc(CN2CC=C(c4cccc5c4OC(C)(c4ccc(Cl)cc4F)O5)CC2)n3C[C@@H]2CCO2)cc2c1NC(=O)C21CC1` (stereo partly shown) [Compound 301], 0.18 nM; for `O=C(N[C@@H](Cc1cnc[nH]1)C(=O)O)c1ccc2c(c1)nc(CN1CCC(c3cccc(OCc4ccc(Cl)cc4F)n3)CC1)n2C[C@@H]1CCO1` [Compound 53], 114 nM. For `Cc1n[nH]c2ccc(NC(=O)c3ccc4c(c3)nc(CN3CCC(c5cccc(OCc6ccc(C#N)cc6F)n5)CC3)n4C[C@@H]3CCO3)cc12` [Compound 133] the value was 0.38 nM; for `Cc1cc(NC(=O)c2ccc3c(c2)nc(CN2CCC(c4cccc(OCc5ccc(Cl)cc5F)n4)CC2)n3C[C@@H]2CCO2)cc2nn[nH]c12` [Compound 194], 0.33 nM. In turn, `COCCn1c(CN2CCC(c3cccc(OCc4ccc(Cl)cc4F)n3)CC2)nc2cc(C(=O)NCc3ccc4[nH]c(=O)[nH]c4c3)ccc21` [Compound 38] returned an EC50 of 17.7 nM. Consider `Cc1cc2c(C#N)ccc(COc3cccc(C4=CCN(Cc5nc6cc(NC(=O)c7ccc8[nH]nc(C)c8c7)ccc6n5C[C@@H]5CCO5)CC4)n3)c2o1` [Compound 358], for which the EC50 amounted to 0.98 nM. For `CC(C)c1n[nH]c2ccc(NC(=O)c3ccc4c(c3)nc(CN3CCC(c5cccc(OCc6ccc(Cl)cc6F)n5)CC3)n4C[C@@H]3CCO3)cc12` [Compound 83] the value was 3.76 nM.

The molecule `O=C(Nc1cc(C(F)(F)F)c2[nH]nc(C3CC3)c2c1)c1ccc2c(c1)nc(CN1CCC(c3cccc(OCc4ccc(Cl)cc4F)n3)CC1)n2C[C@@H]1CCO1` [Compound 113] had an EC50 of 4.38 nM. The EC50 values of the last two molecules are within 1.5-fold of each other. For `O=C(NCC(=O)N1CC[C@H]1C(=O)O)c1ccc2c(c1)nc(CN1CCC(c3cccc(OCc4ccc(Cl)cc4F)n3)CC1)n2C[C@@H]1CCO1` [Compound 61] the value was 6.75 nM; for `O=C(Nc1cc(C(F)(F)F)c2[nH]ncc2c1)c1ccc2c(c1)nc(CN1CC=C(c3cccc(OCc4ccc(Cl)cc4F)n3)CC1)n2C[C@@H]1CCO1` [Compound 158], 1.03 nM.
